{"source": "paper PMC12734986", "about": "(Marine Drugs, 2025)", "key": {"[1]": {"test_system": "NSCLC cells", "experiment": "Transwell migration assay", "type": "cell-based, human", "conditions": "Transwell 8 μm pores, 10 μM", "procedure": "(§1) Cell migration and invasion were assessed using Transwell chambers with 8 μm pores (BD Biosciences). Cancer cells (2 × 10^4) were seeded in serum-free medium in the upper chamber, while medium containing 10% FBS was placed in the lower chamber. Matrigel-coated upper chambers were used for invasion assays. Following incubation, the migratory and invasive cells were fixed, stained with crystal violet, and imaged under a light microscope."}, "[2]": {"test_system": "A549 xenograft in BALB/c nude mice", "experiment": "A549 xenograft tumor growth", "type": "in vivo, mouse", "conditions": "20 mg/kg intratumorally, every other day, six injections, subcutaneous A549", "procedure": "(§2) Xenograft tumors were generated by subcutaneous injection of A549 lung cancer cells (1 × 10^6 cells/100 µL) into the right flanks of BALB/c female nude mice (5 weeks of age, n = 20). […] The control mice were injected with equal volumes of DW. The tumor size was measured using a caliper (calculated volume = shortest diameter^2 × […]) at 2- or 3-day intervals. The methods were performed in accordance with the relevant guidelines and regulations and were approved by the Animal Care and Use Committee (IACUC) of the National Marine Biodiversity Institute of Korea (Approval No.: MAB-004; approval date: 2 December 2024)."}, "[3]": {"test_system": "NSCLC cells (A549, H460, H1299)", "experiment": "Colony formation assay", "type": "cell-based, human", "conditions": "10 and 20 μM, 7 days, crystal violet, all NSCLCs", "procedure": "(§3) Lung cancer cells were seeded at a density of 10^3 cells in a 35 mm dish and cultured with the peptide for 7 days, until macroscopic colonies formed. Following incubation, the cells were washed and stained with 0.1% crystal violet for 30 min, and the colonies were imaged and counted. Cell morphology was observed and captured at ×10 magnification using an inverted light microscope."}, "[4]": {"experiment": "Body weight in the A549 xenograft model", "type": "in vivo, mouse", "conditions": "20 mg/kg intratumorally, six injections, during the treatment period", "procedure": "as §2"}, "[5]": {"test_system": "NSCLC cells", "experiment": "Transwell invasion assay (Matrigel-coated)", "type": "cell-based, human", "conditions": "10 μM", "procedure": "as §1"}, "[6]": {"test_system": "lung cancer cells", "experiment": "Cell morphology by inverted light microscope", "type": "cell-based, human", "conditions": "10 μM MP28, lung cancer cells", "procedure": "as §3"}, "[7]": {"test_system": "horse blood erythrocytes", "experiment": "Hemolytic activity assay", "type": "cell-based", "conditions": "20 μM", "excerpt": "In this assay, 1% Triton X-100, which causes 100% hemolysis of horse blood erythrocytes, was used as a positive control to indicate complete cell lysis. DW solution served as a negative control, indicating no hemolytic activity."}, "[8]": {"test_system": "cellular vimentin in lung cancer cells", "experiment": "Vimentin immunofluorescence staining", "type": "cell-based, human", "conditions": "10 μM MP28, immunofluorescence"}, "[9]": {"test_system": "caspase-9 in NSCLC cells (A549, H460, H1299)", "experiment": "Active caspase-9 (FITC-LEHD-FMK) staining", "type": "cell-based, human", "procedure": "(§4) The treated cells (1 × 10^6) were harvested, washed with PBS, and collected by centrifugation. Cells were stained with Annexin V and propidium iodide (PI) solution (556547; BD Biosciences, San Jose, CA, USA), followed by incubation at 37 °C for 15 min. […] As a negative control, z-VAD-FMK was added to each experimental condition according to the manufacturer’s instructions (ab65615; caspase 9 FITC staining kit). The cells were resuspended in 300 μL of a washing buffer and were analyzed by a flow cytometer (Accuri C6 Plus; BD Biosciences, San Jose, CA, USA)."}, "[10]": {"test_system": "lung cancer cells", "experiment": "Wound-healing assay", "type": "cell-based, human", "conditions": "more pronounced at 24 h", "procedure": "For the wound-healing assays, cancer cells were grown to >90% confluence in 6-well plates, and scratches were created using a pipette tip. After washing, the cells were incubated in a medium with 10% FBS for 18 h and 24 h. Wound closure was monitored using an inverted phase-contrast microscope (CKX53, Olympus, Shinjuku, Tokyo, Japan), and migration was quantified by measuring the distance between wound edges at multiple sites."}, "[11]": {"test_system": "A549 cells", "experiment": "Annexin V/PI staining, flow cytometry", "type": "cell-based, human", "conditions": "A549, upper end of the increase (20 μM)", "procedure": "as §4"}, "[12]": {"test_system": "H460 cells", "experiment": "Annexin V/PI staining, flow cytometry", "type": "cell-based, human", "procedure": "as §4"}, "[13]": {"test_system": "H1299 cells", "experiment": "Annexin V/PI staining, flow cytometry", "type": "cell-based, human", "procedure": "as §4"}}, "note": "Residues, ends and D or L forms follow the SMILES beside them."}
{"smiles": "CC(C)C[C@H](NC(=O)[C@H](Cc1c[nH]c2ccccc12)NC(=O)[C@@H]1CCCN1C(=O)[C@H](CCCCN)NC(=O)[C@H](CCCCN)NC(=O)[C@H](CS)NC(=O)[C@@H](N)CS)C(=O)N[C@@H](CCCNC(=N)N)C(=O)N[C@@H](CS)C(=O)N[C@@H](Cc1c[nH]c2ccccc12)C(=O)N[C@@H](CCCNC(=N)N)C(=O)N[C@H](C(=O)N[C@@H](CS)C(=O)N[C@@H](CC(C)C)C(=O)N1CCC[C@H]1C(=O)N[C@@H](CO)C(=O)N[C@@H](CCCNC(=N)N)C(=O)N[C@@H](Cc1c[nH]c2ccccc12)C(=O)N[C@@H](CCC(N)=O)C(=O)N[C@@H](CCCNC(=N)N)C(=O)N[C@@H](CCC(=O)O)C(=O)N[C@@H](CCCNC(=N)N)C(=O)N[C@@H](Cc1ccccc1)C(=O)NCC(=O)N[C@@H](CCCNC(=N)N)C(=O)N[C@@H](CCCCN)C(=O)N[C@@H](CS)C(N)=O)[C@@H](C)O", "note": "[MP28] (H-CCKKPWLRCWRTCLPSRWQRERFGRKC-NH2; N-terminus assumed)", "values": [{"measurement": "migratory capacity", "setting": "[1]", "result": "significantly reduced"}, {"measurement": "tumor growth versus control", "setting": "[2]", "result": "tumor growth was significantly slower"}, {"measurement": "colony formation (long term cell proliferation)", "setting": "[3]", "result": "markedly reduced cell growth"}, {"measurement": "body weight versus control", "setting": "[4]", "result": "No significant loss of body weight"}, {"measurement": "invasive capacity", "setting": "[5]", "result": "significantly reduced"}, {"measurement": "morphological changes", "setting": "[6]", "result": "morphological changes from a spindle to a cobblestone-like shape"}, {"measurement": "hemolysis (in words)", "setting": "[7]", "result": "no or minimal hemolysis"}, {"measurement": "cellular vimentin level", "setting": "[8]", "result": "decreased the levels of cellular vimentin"}, {"measurement": "caspase-9 activation", "setting": "[9]; 10 μM MP28 for 3 h, NSCLCs, FITC fluorescence microscopy and flow cytometry", "result": "triggered caspase-9 activation"}, {"measurement": "induction of cleaved caspase-9", "setting": "[9]; A549 and H460 cells (wild-type p53)", "result": "more rapid and robust induction of cleaved caspase-9"}, {"measurement": "induction of cleaved caspase-9", "setting": "[9]; H1299 cells (p53-deficient)", "result": "weaker activation signal"}, {"measurement": "residual wound area versus control", "setting": "[10]", "result": "larger residual wound areas"}, {"measurement": "percentage of apoptotic cells", "setting": "[11]", "result": 15.6, "unit": "%"}, {"measurement": "percentage of apoptotic cells", "setting": "[12]; H460, lower end of the increase (10 μM as read from the text)", "result": 7.5, "unit": "%"}, {"measurement": "percentage of apoptotic cells", "setting": "[12]; H460, upper end of the increase (20 μM)", "result": 19.2, "unit": "%"}, {"measurement": "percentage of apoptotic cells", "setting": "[13]; H1299, lower end of the increase (10 μM as read from the text)", "result": 3.1, "unit": "%"}, {"measurement": "percentage of apoptotic cells", "setting": "[13]; H1299, upper end of the increase (20 μM)", "result": 17.8, "unit": "%"}]}
